Experiments:
[1] = Example 3 urine odor panel ranking; design: species or system Human
Method: (§1) The effectiveness of various quinone compounds in reducing urine odor was compared. […] Human female urine was initially collected and pooled by a nurse on staff at Kimberly-Clark Corporation. The pooled urine was added to mason jars in 50-milliliter aliquots using an automated pipette aid. […] The mason jars were placed in an incubator overnight at 37° C.
(§2) In addition to ranking the jars from least to most malodorous (on a scale from 1 to 7, with 7 being the most malodors), panelists were also asked to judge whether there were secondary (non-urine) odors present and, if so, the extent that the secondary odors were unpleasant (on a scale from 1 to 5, with 5 being extremely unpleasant).
In this assessment, panelists were given instructions to rank the least malodorous jar as “1” and the most malodorous jar as “10,” remaining free to rank the other jars between 2-9.

[2] = Example 3 secondary (non-urine) odor ranking; design: species or system Human
Method: as §1, §2

[3] = Example 5 urine odor panel ranking; design: species or system Human
Method: Assessments were conducted the following day by asking panelists to rate each jar from 1 (least urine malodor) to 8 (most urine malodor). The results are set forth below in Tables 15-18.

[4] = Example 7 urine odor panel ranking (16 millimolar); design: species or system Human; settings: 16 millimolar in urine, 1 least, 10 most urine malodor
Method: The effectiveness of various quinone compounds in reducing urine odor was compared. […] Human female urine was initially collected and pooled at Kimberly-Clark Corporation. The pooled urine was added to mason jars in 50-milliliter aliquots using an automated pipette aid. Powders of the aforementioned quinone compounds (commercially available from Sigma-Aldrich Chemical Co., Inc. of St. Louis, Missouri and Noveon Hilton Davis, Inc. of Cincinnati, Ohio) were weighed and placed into the mason jars containing 50 milliliters of urine so that the final concentration of the powder was 16 millimolar (equivalent to 1 wt. %). The mason jars were placed in an incubator overnight at 37° C. The experimental setup is set forth in more detail below in Table 21.
Jars were wrapped in foil and placed in an incubator at 37° C. overnight. The jars were divided into four groups (C-F), each sharing the same control jar of urine alone (no powder). Assessments were conducted the following day by asking panelists to rate each jar from 1 (least urine malodor) to 10 (most urine malodor).

[5] = Solubility of powder in urine
[6] = Example 6 urine odor panel ranking; design: species or system Human; settings: as Example 5, 1 least, 8 most urine malodor
Description: The quinone compounds chosen for this example were Alizarin Blue Black B, Remazol Brilliant Blue R and Acid Green 25. The results are set forth below in Tables 19 and 20.

[7] = Example 1 urine odor panel ranking; design: species or system Human; settings: 8 millimolar in urine
Description: Human female urine was initially collected and pooled by a nurse on staff at Kimberly-Clark Corporation. […] Powders of Acid Blue 129 and Acid Green 27 (commercially available from Sigma-Aldrich Chemical Co., Inc. of St. Louis, Mo.), as well as D&C Green No. 5 (commercially available from Noveon Hilton Davis, Inc. of Cincinnati, Ohio), were then weighed and placed into the mason jars containing 50 milliliters of urine so that the final concentration of the powder was 8 millimolar (equivalent to 0.5 wt. %). […] A score of “10” was assigned to the most malodorous jar and a score of “1” was assigned to the least malodorous jar.

[8] = Example 4 urine odor panel ranking; design: species or system Human
Description: Powders of the aforementioned quinone compounds (commercially available from Sigma-Aldrich Chemical Co., Inc. of St. Louis, Missouri and Noveon Hilton Davis, Inc. of Cincinnati, Ohio) were weighed and placed into the mason jars containing 50 milliliters of urine so that the final concentration of the powder was 8 millimolar (equivalent to 0.5 wt. %).
To aid in the assessment of the quinone compounds, panelists were asked to rank the mason jars from least to most malodorous (on a scale from 1 to 7, with 7 being the most malodors). The results are set forth below in Tables 12 and 13.

[9] = Example 3 first grouping, 8 millimolar in urine, scale 1 to 7, 7 most malodorous
[10] = Example 3 second grouping, 8 millimolar in urine, 1 least malodorous
[11] = Example 5 Group B, 8 mM in urine, 1 least, 8 most urine malodor
[12] = Example 5, 8 mM in 50 milliliters of urine
[13] = Example 7, 16 mM in 50 milliliters of urine
[14] = Example 3 top performers of both groupings, after 24 hours, 1 least, 10 most malodorous
[15] = after 6 hours, 1 least, 10 most malodorous
[16] = after 24 hours, 1 least, 10 most malodorous
[17] = Example 5 Group A, 8 mM in urine, 1 least, 8 most urine malodor
[18] = 8 millimolar in urine, scale 1 to 7, 7 most malodorous

O=C1C=C(S(=O)(=O)[O-])c2ccccc2C1=O.[K+] [1,2 Naphthaquinone]
urine odor reduction (in words) ([1]; Example 3 first grouping): effectively reduced urine odor | Average Urine Odor Ranking, Avg. Score [1, 9]: 3.8 | Urine Odor Ranking 2 (number of panelists) [1, 9]: 1 | Urine Odor Ranking 3 (number of panelists) [1, 9]: 2 | Urine Odor Ranking 4 (number of panelists) [1, 9]: 1 | Urine Odor Ranking 7 (number of panelists) [1, 9]: 1 | secondary odor (in words) ([2]; Example 3 first grouping): unpleasant secondary smell was found to be present

O=C1C=C(S(=O)(=O)[O-])C(=O)c2ccccc21.[K+] [1,4 Naphthaquinone, 1,4 naphthaquinone-2-sulfonic acid potassium salt]
Average Urine Odor Ranking, Avg. Score [1, 10]: 1.8 | Urine Odor Ranking 1 (number of panelists) [1, 10]: 2 | Urine Odor Ranking 2 (number of panelists) [1, 10]: 2 | Urine Odor Ranking 3 (number of panelists) [1, 10]: 1 | secondary odor (in words) ([2]; Example 3 second grouping): unpleasant secondary odor

Nc1cc(S(=O)(=O)[O-])c(O)c2c1C(=O)c1c(O)c(S(=O)(=O)[O-])cc(N)c1C2=O.[Na+].[Na+] [Acid Blue 45]
Average Urine Odor Ranking, Avg. Score [1, 10]: 3.4 | Urine Odor Ranking 2 (number of panelists) [1, 10]: 1 | Urine Odor Ranking 3 (number of panelists) [1, 10]: 2 | Urine Odor Ranking 4 (number of panelists) [1, 10]: 1 | Urine Odor Ranking 5 (number of panelists) [1, 10]: 1 | odor reduction performance (in words) ([3]; Example 5 Group B): performed well | Average Rankings (Group B), Avg. Score [3, 11]: 3.75 | Urine Odor Ranking 1 (number of panelists) [3, 11]: 2 | Urine Odor Ranking 6 (number of panelists) [3, 11]: 1 | Urine Odor Ranking 7 (number of panelists) [3, 11]: 1 | Average Rankings (Group E), Avg. Score ([4]; Example 7 Group E): 6.4 | Urine Odor Ranking 3 (number of panelists) ([4]; Example 7 Group E): 2 | Urine Odor Ranking 8 (number of panelists) ([4]; Example 7 Group E): 2 | Urine Odor Ranking 10 (number of panelists) ([4]; Example 7 Group E): 1 | Soluble? [5, 12]: Yes | Soluble? [5, 13]: Mostly | Average Rankings, Avg. Score [6]: 5.5 | Urine Odor Ranking 2 (number of panelists) [6]: 1 | Urine Odor Ranking 6 (number of panelists) [6]: 1 | Urine Odor Ranking 7 (number of panelists) [6]: 2

Cc1cc(C)c(Nc2cc(S(=O)(=O)[O-])c(N)c3c2C(=O)c2ccccc2C3=O)c(C)c1.[Na+] [Acid Blue 129]
Average Urine Odor Ranking, Avg. Score [1, 10]: 1.8 | Urine Odor Ranking 1 (number of panelists) [1, 10]: 3 | Urine Odor Ranking 3 (number of panelists) [1, 10]: 2 | Urine Odor Ranking 1 (number of panelists) [1, 14]: 1 | Urine Odor Ranking 3 (number of panelists) [1, 14]: 1 | Urine Odor Ranking 4 (number of panelists) [1, 14]: 1 | Urine Odor Ranking 5 (number of panelists) [1, 14]: 1 | Urine Odor Ranking 6 (number of panelists) [1, 14]: 1 | odor reduction (in words) ([1]; Example 3 top performers, after 24 hours): achieved the best odor reduction | Average Urine Odor Ranking, Avg. Score ([1]; Example 3 top performers, after 24 hours, 1 least, 10 most malodorous): 3.8 | Average Urine Odor Ranking (with statistical corrections), Avg. Score ([1]; Example 3 top performers, after 24 hours, ignoring statistical anomalies): 3.8 | odor reduction performance (in words) ([3]; Example 5 Group B): performed well | Average Rankings (Group B), Avg. Score [3, 11]: 5 | Urine Odor Ranking 2 (number of panelists) [3, 11]: 1 | Urine Odor Ranking 5 (number of panelists) [3, 11]: 1 | Urine Odor Ranking 6 (number of panelists) [3, 11]: 1 | Urine Odor Ranking 7 (number of panelists) [3, 11]: 1 | reducing urine malodor (in words) [7]: functioned effectively in reducing urine malodor | Avg. Ranking (odor) [7, 15]: 1.6 | Ranking 1 (number of panelists) [7, 15]: 4 | Ranking 4 (number of panelists) [7, 15]: 1 | Avg. Ranking (odor) [7, 16]: 1.3 | Ranking 1 (number of panelists) [7, 16]: 5 | Ranking 3 (number of panelists) [7, 16]: 1 | Average Rankings (Group E), Avg. Score ([4]; Example 7 Group E): 6 | Urine Odor Ranking 1 (number of panelists) ([4]; Example 7 Group E): 1 | Urine Odor Ranking 4 (number of panelists) ([4]; Example 7 Group E): 1 | Urine Odor Ranking 7 (number of panelists) ([4]; Example 7 Group E): 1 | Urine Odor Ranking 9 (number of panelists) ([4]; Example 7 Group E): 2 | Soluble? [5, 12]: Mostly | Soluble? [5, 13]: Somewhat

Cc1ccc(Nc2ccc(O)c3c2C(=O)c2ccccc2C3=O)c(S(=O)(=O)[O-])c1.[Na+] [Acid Violet 43]
Average Rankings (Group A), Avg. Score [3, 17]: 4.75 | Urine Odor Ranking 2 (number of panelists) [3, 17]: 2 | Urine Odor Ranking 7 (number of panelists) [3, 17]: 1 | Urine Odor Ranking 8 (number of panelists) [3, 17]: 1 | Average Rankings (Group D), Avg. Score ([4]; Example 7 Group D): 4.2 | Urine Odor Ranking 1 (number of panelists) ([4]; Example 7 Group D): 1 | Urine Odor Ranking 3 (number of panelists) ([4]; Example 7 Group D): 1 | Urine Odor Ranking 4 (number of panelists) ([4]; Example 7 Group D): 1 | Urine Odor Ranking 5 (number of panelists) ([4]; Example 7 Group D): 1 | Urine Odor Ranking 8 (number of panelists) ([4]; Example 7 Group D): 1 | Soluble? [5, 12]: Yes | Soluble? [5, 13]: No

O=C1c2ccccc2C(=O)c2c(Nc3cccc(S(=O)(=O)[O-])c3)c(Nc3ccc(S(=O)(=O)[O-])cc3)cc(O)c21.[Na+].[Na+] [Alizarin Blue Black B, Mordant Black 13 (Alizarin Blue Black B)]
odor reduction performance (in words) ([3]; Example 5 Group A): performed best | Average Rankings (Group A), Avg. Score [3, 17]: 1 | Urine Odor Ranking 1 (number of panelists) [3, 17]: 4 | Average Rankings (Group C), Avg. Score ([4]; Example 7 Group C): 3 | Urine Odor Ranking 1 (number of panelists) ([4]; Example 7 Group C): 1 | Urine Odor Ranking 3 (number of panelists) ([4]; Example 7 Group C): 2 | Urine Odor Ranking 4 (number of panelists) ([4]; Example 7 Group C): 2 | Soluble? [5, 12]: Yes | Soluble? [5, 13]: Yes | Average Rankings, Avg. Score [6]: 2.75 | Urine Odor Ranking 1 (number of panelists) [6]: 1 | Urine Odor Ranking 3 (number of panelists) [6]: 2 | Urine Odor Ranking 4 (number of panelists) [6]: 1

Nc1c(S(=O)(=O)O)cc(Nc2ccc(Nc3nc(Cl)nc(Nc4cccc(S(=O)(=O)O)c4)n3)c(S(=O)(=O)O)c2)c2c1C(=O)c1ccccc1C2=O [Procion Blue HB, Reactive Blue 2 (Procion Blue HB)]
Average Rankings (Group A), Avg. Score [3, 17]: 6.5 | Urine Odor Ranking 5 (number of panelists) [3, 17]: 1 | Urine Odor Ranking 6 (number of panelists) [3, 17]: 1 | Urine Odor Ranking 7 (number of panelists) [3, 17]: 1 | Urine Odor Ranking 8 (number of panelists) [3, 17]: 1 | Average Rankings (Group F), Avg. Score ([4]; Example 7 Group F): 5.2 | Urine Odor Ranking 1 (number of panelists) ([4]; Example 7 Group F): 1 | Urine Odor Ranking 4 (number of panelists) ([4]; Example 7 Group F): 1 | Urine Odor Ranking 5 (number of panelists) ([4]; Example 7 Group F): 1 | Urine Odor Ranking 6 (number of panelists) ([4]; Example 7 Group F): 1 | Urine Odor Ranking 9 (number of panelists) ([4]; Example 7 Group F): 1 | Urine Odor Ranking 10 (number of panelists) ([4]; Example 7 Group F): 1 | Average Rankings, Avg. Score [8, 18]: 3.5 | Urine Odor Ranking 1 (number of panelists) [8, 18]: 2 | Urine Odor Ranking 2 (number of panelists) [8, 18]: 1 | Urine Odor Ranking 4 (number of panelists) [8, 18]: 1 | Urine Odor Ranking 7 (number of panelists) [8, 18]: 1 | Soluble? ([5]; Example 4, 8 millimolar in 50 milliliters of urine): Yes | Soluble? [5, 12]: Yes | Soluble? [5, 13]: Yes

Nc1c(S(=O)(=O)[O-])cc(Nc2cccc(S(=O)(=O)CCOS(=O)(=O)[O-])c2)c2c1C(=O)c1ccccc1C2=O.[Na+].[Na+] [Remazol Brilliant Blue R, Reactive Blue 19 (Remazol Brilliant Blue R)]
odor reduction performance (in words) ([3]; Example 5 Group B): performed well | Average Rankings (Group B), Avg. Score [3, 11]: 3 | Urine Odor Ranking 1 (number of panelists) [3, 11]: 2 | Urine Odor Ranking 4 (number of panelists) [3, 11]: 1 | Urine Odor Ranking 6 (number of panelists) [3, 11]: 1 | Average Rankings (Group E), Avg. Score ([4]; Example 7 Group E): 3.4 | Urine Odor Ranking 1 (number of panelists) ([4]; Example 7 Group E): 1 | Urine Odor Ranking 2 (number of panelists) ([4]; Example 7 Group E): 2 | Urine Odor Ranking 3 (number of panelists) ([4]; Example 7 Group E): 1 | Urine Odor Ranking 9 (number of panelists) ([4]; Example 7 Group E): 1 | reducing urine odor (in words) [8]: most effective in reducing urine odor | Average Rankings, Avg. Score [8, 18]: 1.5 | Urine Odor Ranking 1 (number of panelists) [8, 18]: 2 | Urine Odor Ranking 2 (number of panelists) [8, 18]: 2 | Average Rankings, Avg. Score [6]: 4.75 | Urine Odor Ranking 2 (number of panelists) [6]: 1 | Urine Odor Ranking 3 (number of panelists) [6]: 1 | Urine Odor Ranking 7 (number of panelists) [6]: 2
